# Key:
# [1] = Activity of Beta-lactamase TEM-149 expressed in Escherichia coli HB101
# Escherichia coli [2] = experiment: Antimicrobial activity against Escherichia coli HB101 harboring empty vector pBK-SK by broth macrodilution method; assay type: functional
# [3] = Ratio of Kcat to Km for Beta-lactamase TEM-149 expressed in Escherichia coli HB101
# Escherichia coli [4] = experiment: Antimicrobial activity against Escherichia coli HB101 expressing recombinant plasmid encoded TEM-149 by broth macrodilution method; assay type: functional
# Klebsiella aerogenes = experiment: Antimicrobial activity against Enterobacter aerogenes isolate SS-13 by broth macrodilution method; assay type: functional
# [5] = Activity of Beta-lactamase TEM-149 T182M mutant expressed in Escherichia coli HB101
# [6] = Ratio of Kcat to Km for Beta-lactamase TEM-149 T182M mutant expressed in Escherichia coli HB101
# Escherichia coli [7] = experiment: Antimicrobial activity against Escherichia coli HB101 expressing plasmid encoded TEM-149 T182M mutant by broth macrodilution method; assay type: functional
# Serratia marcescens = experiment: Antimicrobial activity against Serratia marcescens isolate CT-118 by broth macrodilution method; assay type: functional
# [8] = Activity of Beta-lactamase TEM-10
# [9] = Ratio of Kcat to Km for Beta-lactamase TEM-10
SMILES,Km [1] [µM],kcat [1] [s⁻¹],MIC (Escherichia coli [2]) [µg/mL],kcat/Km [3] [M⁻¹ s⁻¹],MIC (Escherichia coli [4]) [µg/mL],MIC (Klebsiella aerogenes) [µg/mL],Km [5] [µM],kcat [5] [s⁻¹],kcat/Km [6] [M⁻¹ s⁻¹],MIC (Escherichia coli [7]) [µg/mL],MIC (Serratia marcescens) [µg/mL],Km [8] [µM],kcat [8] [s⁻¹],kcat/Km [9] [M⁻¹ s⁻¹]
CO/N=C(\C(=O)N[C@@H]1C(=O)N2C(C(=O)[O-])=C(C[N+]3(C)CCCC3)CS[C@H]12)c1csc(N)n1,16,2.4,1,150000,8,> 64,30,0.43,14000,< 0.125,> 64,,,
CC1(C)S[C@@H]2[C@H](NC(=O)Cc3ccccc3)C(=O)N2[C@H]1C(=O)O,0.6,3.5,,5.8e+06,,,0.7,10.5,1.5e+07,,,2,51,2.55e+07
CC1(C)S[C@@H]2[C@H](NC(=O)[C@H](N)c3ccccc3)C(=O)N2[C@H]1C(=O)O,5,5.4,,1.08e+06,,,19,2.4,127000,,,4,12.5,3.1e+06
CC1(C)S[C@@H]2[C@H](NC(=O)[C@H](N)c3ccc(O)cc3)C(=O)N2[C@H]1C(=O)O [AMOXICILLIN],,,,,> 64,> 64,,,,8,> 64,,,
C[C@H]1[C@H](NC(=O)/C(=N\OC(C)(C)C(=O)O)c2csc(N)n2)C(=O)N1S(=O)(=O)O [AZTREONAM],51,4.7,64,92000,> 64,> 64,27,3.6,130000,< 0.125,> 64,28,2,70000
Cc1nnc(SCC2=C(C(=O)O)N3C(=O)[C@@H](NC(=O)Cn4cnnn4)[C@H]3SC2)s1 [CEFAZOLIN],68,2.2,4,32000,32,> 64,35,0.56,16000,1,> 64,417,12.5,30000
CO/N=C(\C(=O)N[C@@H]1C(=O)N2C(C(=O)O)=C(COC(C)=O)CS[C@H]12)c1csc(N)n1 [CEFOTAXIME],43,0.07,4,1600,1,> 128,32,0.41,13000,< 0.125,> 128,30,0.3,10000
CC(C)(O/N=C(\C(=O)N[C@@H]1C(=O)N2C(C(=O)[O-])=C(C[n+]3ccccc3)CS[C@H]12)c1csc(N)n1)C(=O)O [CEFTAZIDIME],19,8.3,> 64,440000,> 64,> 64,26,8.3,320000,0.5,> 64,607,17,28000
CCN1CCN(C(=O)N[C@@H](C(=O)N[C@@H]2C(=O)N3[C@@H]2SC(C)(C)[C@@H]3C(=O)O)c2ccccc2)C(=O)C1=O [PIPERACILLIN],1.4,2.7,32,1.92e+06,> 256,> 256,3.4,5,1.47e+06,1,> 256,,,
